Laboratory results published in patent US12384776B2, “Compounds and uses thereof” (Foghorn Therapeutics Inc., priority 2019, dated 2025).
pIC50: −log10 of the molar value.

Molecular target: Nanoluciferase-BRD9 fusion protein (3×FLAG-NLuc-BRD9) in SYO-1 cells (Homo sapiens (Human), UniProt Q9H8M2)
Experiment: SYO1 BRD9 NanoLuc degradation assay
Format: cell-based
Summary of the method: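 Stable SYO-1 line expressing 3×FLAG-NLuc-BRD9, treated with 10-point 3-fold dilutions (top 1 μM final) for 6 hours. Nanoluciferase luminescence read with Nano-Glo reagent. % inhibition relative to DMSO (high control) and 1 μM reference BRD9 degrader (low control).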

[1] = SYO-1 cells expressing 3×FLAG-NLuc-BRD9, 6 hours incubation, top dose 1 μM

Chain of Nanoluciferase-BRD9 fusion protein (3×FLAG-NLuc-BRD9) in SYO-1 cells (Q9H8M2 whole entry, the tested form may be a part): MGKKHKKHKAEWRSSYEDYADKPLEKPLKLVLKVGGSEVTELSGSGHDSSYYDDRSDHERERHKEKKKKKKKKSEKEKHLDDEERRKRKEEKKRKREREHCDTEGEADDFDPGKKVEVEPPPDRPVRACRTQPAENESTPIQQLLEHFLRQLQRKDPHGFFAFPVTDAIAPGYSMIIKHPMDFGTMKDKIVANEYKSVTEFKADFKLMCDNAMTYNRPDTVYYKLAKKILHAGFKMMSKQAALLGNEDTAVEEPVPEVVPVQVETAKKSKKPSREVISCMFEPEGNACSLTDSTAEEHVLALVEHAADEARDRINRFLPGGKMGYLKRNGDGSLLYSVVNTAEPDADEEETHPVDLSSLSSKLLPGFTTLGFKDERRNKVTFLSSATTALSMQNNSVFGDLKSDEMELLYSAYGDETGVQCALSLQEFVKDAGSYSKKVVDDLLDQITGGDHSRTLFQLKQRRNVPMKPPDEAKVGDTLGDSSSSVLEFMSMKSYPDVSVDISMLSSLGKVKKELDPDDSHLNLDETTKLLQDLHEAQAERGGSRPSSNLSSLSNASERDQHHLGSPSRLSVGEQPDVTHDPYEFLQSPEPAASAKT

Row | Compound | pIC50 [1] | other results
1 | CNC(=O)N1CCc2c(-c3cc(OC)c(CN4CCC(CN5CCN(c6ccc7c(c6)C(=O)N(C6CCC(=O)NC6=O)C7=O)CC5)CC4)c(OC)c3)cn(C)c(=O)c2C1 (centres unmarked) [Compound D256] | > 8.00 | 
2 | CNC(=O)N1CCc2c(-c3cc(OC)c(CN4CC(CCCN5CCN(c6ccc7c(c6)C(=O)N(C6CCC(=O)NC6=O)C7=O)CC5)C4)c(OC)c3)cn(C)c(=O)c2C1 (centres unmarked) [Compound D257] | ≤ 6.00 | 
3 | CNC(=O)N1CCc2c(-c3cc(OC)c(CN4CC(CCN5CCN(c6ccc7c(c6)C(=O)N(C6CCC(=O)NC6=O)C7=O)CC5)C4)c(OC)c3)cn(C)c(=O)c2C1 (centres unmarked) [Compound D258] | 6.00 to 7.00 | 
4 | COc1cc(-c2cn(C)c(=O)c3c2CCN(C(=O)NCC2CC4(CCN(CCOc5ccc6c(c5)C(=O)N(C5CCC(=O)NC5=O)C6=O)CC4)CO2)C3)cc(OC)c1CN(C)C (centres unmarked) [Compound D259] | 7.00 to 8.00 | 
5 | COc1cc(-c2cn(C)c(=O)c3c2CCN(C(=O)NCCCN2CCC4C2CN4c2ccc4c(c2)C(=O)N(C2CCC(=O)NC2=O)C4=O)C3)cc(OC)c1CN(C)C (centres unmarked) [Compound D260] | 7.00 to 8.00 | 
6 | COc1cc(-c2cn(C)c(=O)c3c2CCN(C(=O)NCCCN2CCC4(CCN4c4ccc5c(c4)C(=O)N(C4CCC(=O)NC4=O)C5=O)C2)C3)cc(OC)c1CN(C)C (centres unmarked) [Compound D261] | 7.00 to 8.00 | 
7 | COc1cc(-c2cn(C)c(=O)c3c2CCN(C(=O)NC2CC4(CCN(CCCOc5ccc6c(c5)C(=O)N(C5CCC(=O)NC5=O)C6=O)C4)C2)C3)cc(OC)c1CN(C)C (centres unmarked) [Compound D262] | 6.00 to 7.00 | 
8 | COc1cc(-c2cn(C)c(=O)c3c2CCN(C(=O)NC2CC4(C2)CN(CCCOc2ccc5c(c2)C(=O)N(C2CCC(=O)NC2=O)C5=O)C4)C3)cc(OC)c1CN(C)C (centres unmarked) [Compound D263] | 6.00 to 7.00 | 
9 | COc1cc(-c2cn(C)c(=O)c3c2CCN(C(=O)NC2CC4(C2)CN(CCOc2ccc5c(c2)C(=O)N(C2CCC(=O)NC2=O)C5=O)C4)C3)cc(OC)c1CN(C)C (centres unmarked) [Compound D264] | ≤ 6.00 | 
10 | COc1cc(-c2cn(C)c(=O)c3c2CCN(C(=O)NCC2CC4CN(CCCOc5ccc6c(c5)C(=O)N(C5CCC(=O)NC5=O)C6=O)CC4C2)C3)cc(OC)c1CN(C)C (centres unmarked) [Compound D265] | 6.00 to 7.00 | 
11 | COc1cc(-c2cn(C)c(=O)c3c2CCN(C(=O)NCC2CC4CN(CCOc5ccc6c(c5)C(=O)N(C5CCC(=O)NC5=O)C6=O)CC4C2)C3)cc(OC)c1CN(C)C (centres unmarked) [Compound D266] | 7.00 to 8.00 | 
12 | COc1cc(-c2cn(C)c(=O)c3c2CCN(C(=O)NCC2CC4(CCN(CCOc5ccc6c(c5)C(=O)N(C5CCC(=O)NC5=O)C6=O)CC4)C2)C3)cc(OC)c1CN(C)C (centres unmarked) [Compound D267] | 7.00 to 8.00 | 
13 | COc1cc(-c2cn(C)c(=O)c3c2CCN(C(=O)NCC2CC4(C2)CN(CCOc2ccc5c(c2)C(=O)N(C2CCC(=O)NC2=O)C5=O)C4)C3)cc(OC)c1CN(C)C (centres unmarked) [Compound D268] | 7.00 to 8.00 | 
14 | COc1cc(-c2cn(C)c(=O)c3c2CCN(C(=O)NCC2CC24CCN(CCOc2ccc5c(c2)C(=O)N(C2CCC(=O)NC2=O)C5=O)CC4)C3)cc(OC)c1CN(C)C (centres unmarked) [Compound D269] | 7.00 to 8.00 | 
15 | COc1cc(-c2cn(C)c(=O)c3c2CCN(C(=O)NC2CC4CC2CN4CCCOc2ccc4c(c2)C(=O)N(C2CCC(=O)NC2=O)C4=O)C3)cc(OC)c1CN(C)C (centres unmarked) [Compound D270] | 6.00 to 7.00 | 
16 | COc1cc(-c2cn(C)c(=O)c3c2CCN(C(=O)NC2CCC4CN(CCOc5ccc6c(c5)C(=O)N(C5CCC(=O)NC5=O)C6=O)CC42)C3)cc(OC)c1CN(C)C (centres unmarked) [Compound D271] | 7.00 to 8.00 | 
17 | COc1cc(-c2cn(C)c(=O)c3c2CCN(C(=O)NC2CC4CN(CCOc5ccc6c(c5)C(=O)N(C5CCC(=O)NC5=O)C6=O)CC4C2)C3)cc(OC)c1CN(C)C (centres unmarked) [Compound D273] | 6.00 to 7.00 | 
18 | COc1cc(-c2cn(C)c(=O)c3c2CCN(C(=O)NC2CC4CC2CN4CCOc2ccc4c(c2)C(=O)N(C2CCC(=O)NC2=O)C4=O)C3)cc(OC)c1CN(C)C (centres unmarked) [Compound D274] | 6.00 to 7.00 | 
19 | CNC(=O)N1CCc2c(-c3cc(OC)c(CN4CC(CC(=O)N5CCC6(CC5)CC(Oc5ccc7c(c5)C(=O)N(C5CCC(=O)NC5=O)C7=O)C6)C4)c(OC)c3)cn(C)c(=O)c2C1 (centres unmarked) [Compound D275] | 7.00 to 8.00 | 
20 | CNC(=O)N1CCc2c(-c3cc(OC)c(CN(C)C45CC(C(=O)NCCCCCOc6ccc7c(c6)C(=O)N(C6CCC(=O)NC6=O)C7=O)(C4)C5)c(OC)c3)cn(C)c(=O)c2C1 (centres unmarked) [Compound D276] | 7.00 to 8.00 | 
21 | CNC(=O)N1CCc2c(-c3cc(OC)c(CN4CC(S(=O)(=O)NCCCOc5ccc6c(c5)C(=O)N(C5CCC(=O)NC5=O)C6=O)C4)c(OC)c3)cn(C)c(=O)c2C1 (centres unmarked) [Compound D277] | 6.00 to 7.00 | 
22 | COc1cc(-c2cn(C)c(=O)c3c2CN(C)CC3)cc(OC)c1CN1CC(CN2CCC3(CC2)CN(c2ccc4c(c2)C(=O)N(C2CCC(=O)NC2=O)C4)C3)C1 (centres unmarked) [Compound D293] |  | DC50 (SYO-1 cells expressing 3×FLAG-NLuc-BRD9, 6 hours incubation, top dose 1 μM, read-out: SYO1 BRD9-NanoLuc degradation IC50): 100 to 1000 nM
23 | CNC(=O)N1CCc2c(-c3cc(OC)c(C4CN(c5ccc6c(c5)C(=O)N(C5CCC(=O)NC5=O)C6=O)C4)c(OC)c3)cn(C)c(=O)c2C1 (centres unmarked) [Compound D303] |  | pIC50 (SYO-1 cells, 6 hours, Table 6C): > 8.00
24 | CNC(=O)N1CCc2c(-c3cc(OC)c(CN4CCC5(CN(c6ccc7c(c6)C(=O)N(C6CCC(=O)NC6=O)C7)C5)C(C)C4)c(OC)c3)cn(C)c(=O)c2C1 (centres unmarked) [Compound D304] |  | pIC50 (SYO-1 cells, 6 hours, Table 6C): > 8.00

Continued, in another order:

Row | pIC50 [1] | Compound | other results
25 | 7.00 to 8.00 | CNC(=O)N1CCc2c(-c3cc(OC)c(CN4CC(S(=O)(=O)NCCCCOc5ccc6c(c5)C(=O)N(C5CCC(=O)NC5=O)C6=O)C4)c(OC)c3)cn(C)c(=O)c2C1 (centres unmarked) [Compound D278] | 
26 | 6.00 to 7.00 | CNC(=O)N1CCc2c(-c3cc(OC)c(CN4CC(S(=O)(=O)NCCOc5ccc6c(c5)C(=O)N(C5CCC(=O)NC5=O)C6=O)C4)c(OC)c3)cn(C)c(=O)c2C1 (centres unmarked) [Compound D279] | 
27 | 6.00 to 7.00 | CNC(=O)N1CCc2c(-c3cc(OC)c(CN4CC(S(=O)(=O)NCCCOc5cccc6c5C(=O)N(C5CCC(=O)NC5=O)C6=O)C4)c(OC)c3)cn(C)c(=O)c2C1 (centres unmarked) [Compound D280] | 
28 | 7.00 to 8.00 | CNC(=O)N1CCc2c(-c3cc(OC)c(CN4CC(S(=O)(=O)NCCCCOc5cccc6c5C(=O)N(C5CCC(=O)NC5=O)C6=O)C4)c(OC)c3)cn(C)c(=O)c2C1 (centres unmarked) [Compound D281] | 
29 | 6.00 to 7.00 | CNC(=O)N1CCc2c(-c3cc(OC)c(CN4CC(S(=O)(=O)NCCOc5cccc6c5C(=O)N(C5CCC(=O)NC5=O)C6=O)C4)c(OC)c3)cn(C)c(=O)c2C1 (centres unmarked) [Compound D282] | 
30 | > 8.00 | CNC(=O)N1CCc2c(-c3cc(OC)c(CN(C)C45CC(C(=O)NCCCCCOc6cccc7c6C(=O)N(C6CCC(=O)NC6=O)C7=O)(C4)C5)c(OC)c3)cn(C)c(=O)c2C1 (centres unmarked) [Compound D283] | 
31 | 7.00 to 8.00 | CNC(=O)N1CCc2c(-c3cc(OC)c(CN(C)CCOCCN4CCN(c5ccc6c(c5)C(=O)N(C5CCC(=O)NC5=O)C6=O)CC4)c(OC)c3)cn(C)c(=O)c2C1 (centres unmarked) [Compound D284] | 
32 | 6.00 to 7.00 | CNC(=O)N1CCc2c(-c3cc(OC)c(CN(C)CC45CC(C(=O)NCCCCCOc6ccc7c(c6)C(=O)N(C6CCC(=O)NC6=O)C7=O)(C4)C5)c(OC)c3)cn(C)c(=O)c2C1 (centres unmarked) [Compound D286] | 
33 | 6.00 to 7.00 | CNC(=O)N1CCc2c(-c3cc(OC)c(CN4CC(S(=O)(=O)NCCN5CCN(c6ccc7c(c6)C(=O)N(C6CCC(=O)NC6=O)C7=O)CC5)C4)c(OC)c3)cn(C)c(=O)c2C1 (centres unmarked) [Compound D287] | 
34 | 6.00 to 7.00 | CNC(=O)N1CCc2c(-c3cc(OC)c(CN(C)CC45CC(C(=O)NCCCCCOc6cccc7c6C(=O)N(C6CCC(=O)NC6=O)C7=O)(C4)C5)c(OC)c3)cn(C)c(=O)c2C1 (centres unmarked) [Compound D288] | 
35 | 7.00 to 8.00 | CNC(=O)N1CCc2c(-c3cc(OC)c(CN4CC5CN(C(=O)CCOCCOc6ccc7c(c6)C(=O)N(C6CCC(=O)NC6=O)C7=O)CCC54)c(OC)c3)cn(C)c(=O)c2C1 (centres unmarked) [Compound D289] | 
36 | ≤ 6.00 | COc1cc(-c2cn(C)c(=O)c3c2CCN(C(=O)NCCN(C)CCNC(=O)COc2ccc4c(c2)CN(C2CCC(=O)NC2=O)C4=O)C3)cc(OC)c1CN(C)C (centres unmarked) [Compound D290] | 
37 | 7.00 to 8.00 | COc1cc(-c2cn(C)c(=O)c3c2CCN(C(=O)NCCCCCCCCNc2cccc4nc(C)n(C5CCC(=O)NC5=O)c(=O)c24)C3)cc(OC)c1CN(C)C (centres unmarked) [Compound D291] | 
38 | 6.00 to 7.00 | COc1cc(-c2cn(C)c(=O)c3c2CCN(C(=O)NCCOCCOCCNc2cccc4nc(C)n(C5CCC(=O)NC5=O)c(=O)c24)C3)cc(OC)c1CN(C)C (centres unmarked) [Compound D292] | 
39 | ≤ 6.00 | CNC(=O)N1CCc2c(c(-c3cc(OC)c(CN(C)CC45CC(C(=O)NCCCCCOc6cccc7c6C(=O)N(C6CCC(=O)NC6=O)C7=O)(C4)C5)c(OC)c3)cn(C)c2=O)C1 (centres unmarked) [Compound D294] | 
40 | 6.00 to 7.00 | CNC(=O)N1CCc2c(c(-c3cc(OC)c(CN4CC5CN(C(=O)CCOCCOc6ccc7c(c6)C(=O)N(C6CCC(=O)NC6=O)C7=O)CCC54)c(OC)c3)cn(C)c2=O)C1 (centres unmarked) [Compound D295] | 
41 | ≤ 6.00 | CNC(=O)N1CCc2c(c(-c3cc(OC)c(CN(C)CCOCCN4CCN(c5ccc6c(c5)C(=O)N(C5CCC(=O)NC5=O)C6=O)CC4)c(OC)c3)cn(C)c2=O)C1 (centres unmarked) [Compound D296] | 
42 | ≤ 6.00 | CNC(=O)N1CCc2c(c(-c3cc(OC)c(CN(C)CC(=O)NCCOCCOc4cccc5c4C(=O)N(C4CCC(=O)NC4=O)C5=O)c(OC)c3)cn(C)c2=O)C1 (centres unmarked) [Compound D297] | 
43 | ≤ 6.00 | COc1cc(-c2cn(C)c(=O)c3c2CN(C(=O)N(C)C)CC3)cc(OC)c1CN(C)CCOCCN1CCN(c2ccc3c(c2)C(=O)N(C2CCC(=O)NC2=O)C3=O)CC1 (centres unmarked) [Compound D298] | 
44 | > 8.00 | CNC(=O)N1Cc2c(-c3cc(OC)c(CN4CCC(CCN5CCN(c6ccc7c(c6)C(=O)N(C6CCC(=O)NC6=O)C7=O)CC5)CC4)c(OC)c3)cn(C)c(=O)c2C1 (centres unmarked) [Compound D299] | 
45 | > 8.00 | CNC(=O)N1Cc2c(-c3cc(OC)c(CN4CCC5(CC4)CN(c4ccc6c(c4)C(=O)N([C@@H]4CCC(=O)NC4=O)C6=O)C5)c(OC)c3)cn(C)c(=O)c2C1 [Compound D300] | 
46 | > 8.00 | COc1cc(-c2cn(C)c(=O)c3c2CCCC3)cc(OC)c1CN1CC(CN2CCC3(CC2)CN(c2ccc4c(c2)C(=O)N(C2CCC(=O)NC2=O)C4)C3)C1 (centres unmarked) [Compound D301] | 
47 | > 8.00 | COc1cc(-c2cn(C)c(=O)c3c2COC3)cc(OC)c1CN1CC(CN2CCC3(CC2)CN(c2ccc4c(c2)C(=O)N(C2CCC(=O)NC2=O)C4)C3)C1 (centres unmarked) [Compound D302] | 
